We go through 24 molecules from patent publication US5168101A, “Sulfonamide derivatives” (Ono Pharmaceutical Co., Ltd., priority 1987, dated 1992).

In series [1] the test system is increasing of blood pressure in guinea pigs. Briefly: Stimulatory effect on increasing of blood pressure in guinea pigs (agonistic effect on TXA2). The series is classed as in vivo. The note with it: 100 μg/kg, i.v. (n = 2~4). An excerpt: (§1) For example, in a standard laboratory test, the effects were possible to be confirmed by (i) inhibitory effect on increasing of blood pressure induced by STA2 in guinea pigs (antagonistic effect) and (ii) stimulatory effect on increasing of blood pressure in guinea pigs (agnostic effect).
(§2) Inhibitory effect on increasing of blood pressure induced by TXA2 in guinea pigs and stimulatory effect on increasing of blood pressure in guinea pigs: A 7% sodium bicarbonate buffer solution (pH 7.6~8.6) of each tested compounds was administered intravenously via carotid vein or orally to a urethane-anaesthetized male guinea pig weighing 250~350 g, at a rate of 100 μg/kg animal body weight. Increasing of blood pressure was measured in guinea pigs administered test compounds intravenously. On the other hand, to guinea pigs administered test compounds orally, then a solution of STA2 in phosphate buffer (pH 7.4) was administered. Change of the blood pressure was measured at carotid artery and then inhibition ratio (%) was calculated.

Series [2] concerns increasing of blood pressure induced by STA2. Briefly: Inhibitory effect on increasing of blood pressure induced by STA2 in guinea pigs. It counts as in vivo. The following applies: 100 μg/kg. As for the experimental part:
(iii) Inhibitory effect on increasing of blood pressure induced by STA2 in guinea pigs: A 7% sodium bicarbonate buffer solution (pH 7.6-8.6) of each tested compounds was administered intravenously via carotid vein or orally to a urethane-anaesthetized male guinea pig weighing 250~350 g, at a rate of 10-1000 μg/kg animal body weight. And then guinea pigs were administered intravenously a solution of STA2 in phosphate buffer (pH 7.4). change of the blood pressure was measured at carotid artery and then inhibition ratio (%) was calculated.
as §1, §2

In series [3] the test system is platelet aggregation induced by STA2 in human blood. Briefly: Inhibitory effect on platelet aggregation induced by STA2 in human blood. It counts as cell-based. The following applies: platelet aggregation induced by STA2 in human blood (platelet rich plasma, method of Born); read-out: Inhibitory effects on platelet aggregation (IC50). An excerpt:
For example, in a standard laboratory test, the effects were possible to be confirmed by (i) inhibitory effect on platelet aggregation induced by STA2 (9α, 11α-epithio-15α-hydroxy-11α-carbathromba-5Z,13E-dienoic acid) in human blood, (ii) inhibitory effect on contraction of smooth muscle induced by STA2 in guinea pigs or (iii) inhibitory effect on increasing of blood pressure induced by STA2 in guinea pigs (intravenously and orally).
(i) Inhibitory effect on platelet aggregation induced by STA2 in human blood: Whole blood of healthy human adult was collected with citric acid, and the mixture (20 ml) was centrifuged (180×g) for 10 min. The supernatant obtained was diluted with sufficient platelet poor plasma to obtain plasma which contains 300,000 platelet cells power μl. A solution of tested compound in ethanol (1 μl) was added to the obtained plasma (250 μl), and then a solution of STA2 is ethanol was added to the mixtures. The measurement was carried out followed by the method of Born and then IC50 was calculated.

As for `Cc1ccc(S(=O)(=O)N[C@H]2[C@H]3CC[C@H](C3)[C@@H]2C/C=C\CCCC(=O)N[C@@H](CCCCN)C(=O)O)cc1` [Example 8, Amide of (5Z)-7-[(1R, 2S, 3S, 4S)-3-tosylaminobicyclo [2.2.1]heptan-2-yl]hept-5-enoic acid and lysine], the “(ii) Effect of increasing of blood pressure in guinea pig” value in series [1] was 7 mmHg. In addition, the “(i) Duration of more than 50% inhibit increasing of blood pressure induced STA2 pig” value in series [2] is listed as 305 min.
For the molecule `O=C(O)CCC/C=C\[C@@H]1[C@H]2CC[C@H](C2)[C@H]1CNS(=O)(=O)c1ccc(Br)cc1` [1 (y), (5Z)-6-[(1S, 2S, 3R, 4R)-3-[N-(4-bromobenzenesulfonyl)aminomethyl]bicyclo[2.2.1]heptan-2-yl]hex-5-enoic acid], the IC50 in series [3] is 10 nM.
Consider `O=C(O)CCC/C=C\[C@H]1[C@@H]2CC[C@@H](C2)[C@@H]1CNS(=O)(=O)c1ccccc1` [1 (q), (5Z)-6-[(1R, 2R, 3S, 4S)-3-(N-benzenesulfonylaminomethyl)bicyclo[2.2.1]heptan-2-yl]hex-5-enoic acid], for which the 50% inhibitory concentration (IC50) in series [3] worked out at 1670 nM.
`O=C(O)CCC/C=C\[C@H]1C[C@@H]2CC[C@H]1[C@@H](NS(=O)(=O)c1ccc(Br)cc1)C2` (relative stereo) [1 (a), (5Z)-6-[(1R*, 2R*, 4S*, 6S*)-6-(4-bromobenzenesulfonylamino)bicyclo[2.2.2]octan-2-yl]hex-5-enoic acid]: in series [3], the concentration for half-maximal inhibition (IC50) was 660 nM.
Take `O=C(O)CCC/C=C\[C@@H]1CCC[C@H](NS(=O)(=O)c2ccc(Br)cc2)C1` (relative stereo) [1 (m), (5Z)-6-[(1R*, 3S*)-3-(4-bromobenzenesulfonylamino)cyclohexyl]hex-5-enoic acid]: in series [3], the IC50 is 170 nM.
As to `O=C(O)CCC/C=C\[C@@H]1CC[C@H](NS(=O)(=O)c2ccc(Br)cc2)C1` [1 (i), (5Z)-6-[(1R, 3S)-3-(4-bromobenzenesulfonylamino)cyclopentyl]hex-5-enoic acid], in series [3], the half-inhibitory concentration (IC50) is 30 nM.
With `Cc1ccc(S(=O)(=O)N[C@H]2[C@H]3CC[C@H](C3)[C@@H]2C/C=C\CCCC(=O)NC(CCC(=O)O)C(=O)O)cc1` (stereo partly drawn) [7 (c), amide of (5Z)-7-[(1R, 2S, 3S, 4S)-3-tosylaminobicyclo[2.2.1]heptan-2-yl]hept-5-enoic acidand glutamic acid], in series [1], the “(ii) Effect of increasing of blood pressure in guinea pig” value was determined as 7 mmHg. In addition, in series [2], the “(i) Duration of more than 50% inhibit increasing of blood pressure induced STA2 pig” value is recorded as more than 290 min.
`NC(=O)CCC/C=C\[C@@H]1[C@H]2CC[C@H](C2)[C@H]1CNS(=O)(=O)c1ccc(Br)cc1` [6 (d), (5Z)-6-[(1S, 2S, 3R, 4R)-3[N-(4-bromobenzenesulfonyl)aminomethyl]bicyclo[2.2.1]heptan-2-yl]hex-5-enamide]: in series [1], the “(ii) Effect of increasing of blood pressure in guinea pig” value is on record as 6 mmHg. In addition, the “(i) Duration of more than 50% inhibit increasing of blood pressure induced STA2 pig” value in series [2] is given as more than 240 min.
Regarding `Cc1ccc(S(=O)(=O)N[C@H]2[C@H]3CC[C@H](C3)[C@@H]2C/C=C\CCCC(=O)NCC(=O)O)cc1` [Example 7, Amide of (5Z)-7-[(1R, 2S, 3S, 4S)-3-tosylaminobicyclo [2.2.1]heptan-2-yl]hept-5-enoic acid and glycine], the “(ii) Effect of increasing of blood pressure in guinea pig” value in series [1] is given as 9 mmHg. In addition, the “(i) Duration of more than 50% inhibit increasing of blood pressure induced STA2 pig” value in series [2] is listed as more than 270 min.
For the molecule `Cc1ccc(S(=O)(=O)NC[C@H]2CCC[C@@H]2/C=C\CCCC(=O)O)cc1` (relative stereo) [1 (w), (5Z)-6-[(1R, 2S*)-2-[N-tosylaminomethyl]cyclopentan-1-yl]hex-5-enoic acid], the IC50 in series [3] amounted to 680 nM.
Still for that read-out and setting: the result for `O=C(O)CCC/C=C\[C@H]1[C@@H]2CC[C@@H](C2)[C@@H]1CCNS(=O)(=O)c1ccc(Br)cc1` [1 (u), (5Z)-6-[(1R, 2R, 3S, 4S)-3-[2-[N-(4-bromobenzenesulfonyl)amino]ethyl]bicyclo[2.2.1]heptan-2-yl]hex-5-enoic acid] reads 1000 nM.
`CCCCCCCCOC(=O)CCC/C=C\[C@@H]1[C@H]2CC[C@H](C2)[C@H]1CNS(=O)(=O)c1ccc(Br)cc1` [5 (g), octyl(5Z)-6-[(1S, 2S, 3R, 4R)-3-[N-(4-bromobenzenesulfonyl)aminomethyl]bicyclo[2.2.1]heptan-2-yl]hex-5-enoate]: the “(ii) Effect of increasing of blood pressure in guinea pig” value in series [1] worked out at 1 mmHg. Also, in series [2], the “(i) Duration of more than 50% inhibit increasing of blood pressure induced STA2 pig” value is more than 300 min.
Turning to `O=C(O)CCC/C=C\[C@H]1[C@@H]2CC[C@@H](C2)[C@@H]1CNS(=O)(=O)c1ccc(Br)cc1` [1 (r), (5Z)-6[(1R, 2R, 3S, 4S)-3-[N-(4-bromobenzenesulfonyl)aminomethyl]bicyclo[2.2.1]heptan-2-yl]hex-5-enoic acid], the IC50 in series [3] was determined as 280 nM.
In the case of `Cc1ccc(S(=O)(=O)N[C@H]2[C@H]3CC[C@H](C3)[C@@H]2C/C=C\CCCC(=O)NC(C)C(=O)O)cc1` (stereo partly drawn) [7 (b), amide of (5Z)-7-[(1R, 2S, 3S, 4S)-3-tosylaminobicyclo[2.2.1]heptan-2-yl]hept-5-enoic acidand alanine], the “(ii) Effect of increasing of blood pressure in guinea pig” value in series [1] worked out at 11 mmHg. For the same molecule, in series [2], the “(i) Duration of more than 50% inhibit increasing of blood pressure induced STA2 pig” value is recorded as more than 290 min.
Regarding `Cc1ccc(S(=O)(=O)NCC2C3CCC(C3)C2C=CCCCC(=O)O)cc1` [1 (s), (5Z)-6-[(1S, *2S*, 3S*, 4R*)-3-[N-tosylaminomethyl]bicyclo[2.2.1]heptan-2-yl]hex-5-enoic acid], the half-inhibitory concentration (IC50) in series [3] was determined as 520 nM.
For `O=C(O)CCC/C=C\[C@H]1CCC[C@@H]1CNS(=O)(=O)c1ccc(Br)cc1` (relative stereo) [1 (v), (5Z)-6-[(1R, 2S*)-2-[N-(4-bromobenzenesulfonyl)aminomethyl]cyclopentan-1-yl]hex-5-enoic acid], the IC50 in series [3] came to 220 nM.
On to `O=C(O)CCC/C=C\[C@H]1C[C@@H]2C[C@H]1[C@@H](NS(=O)(=O)c1ccc(Br)cc1)C2` (relative stereo) [1 (c), (5Z)-6-[(1R*, 2R*, 4R*, 6S*)-6-(4-bromobenzenesulfonylamino)bicyclo[2.2.1]heptan-2-yl]hex-5-enoic acid], for which the IC50 in series [3] was 1000 nM.
On the same count and under the same terms, the result for `Cc1ccc(S(=O)(=O)NC[C@@H]2[C@@H]3CC[C@@H](C3)[C@H]2/C=C\CCCC(=O)O)cc1` [1 (x), (5Z)-6-[(1S, 2S, 3R, 4R)-3-[N-tosyl-aminomethyl]bicyclo[2.2.1]heptan-2-yl]hex-5-enoic acid] reads 50 nM.
As to `CC(C)[C@@H]1CC[C@@H](C)C[C@H]1OC(=O)CCC/C=C\[C@@H]1[C@H]2CC[C@H](C2)[C@H]1CNS(=O)(=O)c1ccc(Br)cc1` [5 (h), menthyl(5Z)-6-[(1S, 2S, 3R, 4R)-3-[N-(4-bromobenzenesulfonyl)aminomethyl]bicyclo[2.2.1]heptan-2-yl]hex-5-enoate], the “(ii) Effect of increasing of blood pressure in guinea pig” value in series [1] amounted to 1 mmHg. For the same molecule, the “(i) Duration of more than 50% inhibit increasing of blood pressure induced STA2 pig” value in series [2] was more than 300 min.
On the same counts, the results for `Cc1ccc(S(=O)(=O)N[C@H]2[C@H]3CC[C@H](C3)[C@@H]2C/C=C\CCCC(N)=O)cc1` are 9 mmHg and more than 340 min.
As for `O=C(O)CCC/C=C\[C@H]1CCCC[C@@H]1CNS(=O)(=O)c1ccc(Br)cc1` (relative stereo) [1 (t), (5Z)-6-[(1R*, 2S*,)-2-[N-(4-bromobenzenesulfonyl)aminometh-yl]cyclohexan-1-yl]hex-5-enoicacid], in series [3], the IC50 worked out at 520 nM.
As for `Cc1ccc(S(=O)(=O)N[C@@H]2C[C@@H]3C[C@H](C/C=C\CCCC(=O)O)[C@H]2C3)cc1` (relative stereo) [4 (a)], in series [3], the IC50 came to 1780 nM.
For the molecule `Cc1ccc(S(=O)(=O)N[C@H]2[C@H]3CC[C@H](C3)[C@@H]2C/C=C\CCCC(=O)O)cc1` [The compared compound, reference compound], the “(ii) Effect of increasing of blood pressure in guinea pig” value in series [1] is 36 mmHg. Also, in series [2], the “(i) Duration of more than 50% inhibit increasing of blood pressure induced STA2 pig” value stood at 205 min.
With `Cc1ccc(S(=O)(=O)NC[C@H]2[C@H]3CC[C@H](C3)[C@@H]2/C=C\CCCC(=O)O)cc1` (relative stereo) [1 (p), (5Z)-6-[(1R*, 2R*, 3S*, 4S*)-3-[N-tosylaminomethyl]bicyclo[2.2.1]heptan-2-yl]hex-5-enoic acid], the IC50 in series [3] turned out to be 90 nM.
